{"source": "patent US20250320249A1", "about": "“PEPTIDE HAVING ACTIVITY OF IMPROVING STATE OF SKIN, AND USE THEREOF” (CAREGEN CO., LTD., priority 2021, published 2025)", "key": {"NIH3T3 cells [1]": {"tested_on": "NIH3T3 cells", "assay": "Proliferation of skin cells (SRB staining, survival rate)", "assay_type": "cell-based, mouse", "conditions": "50 μM or 100 μM peptide, 72 hours, serum-free DMEM, FIG. 1A", "description": "(§1) In this example, the aim was to confirm the effect of a peptide according to an example on proliferation of skin cells, by evaluating changes in survival rate of NIH3T3 cells, which are mouse fibroblasts, or HaCaT cells, which are human keratinocytes.\n(§2) Specifically, NIH3T3 cells or HaCaT cells were seeded in a 96-well plate at a density of 5×10^3 cells/well and cultured for 24 hours. The cells were then washed once with serum-free DMEM media, and the culture medium was replaced with serum-free DMEM media. Then, 50 μM or 100 μM of the peptide consisting of the amino acid sequence of SEQ ID NO: 1 was dispensed into the medium, and cultured in a CO2 incubator at 37° C. for 72 hours. The culture was then washed twice with PBS and treated with 4% paraformaldehyde (PFA) solution for 15 minutes to fix the cultured cells. The culture was then washed twice with distilled water, treated with SRB solution for 1 hour to stain the cells, washed with 1% acetic acid solution, and dried. The dried culture was then dissolved in 20 mM Tris buffer solution and the absorbance at 560 nm was measured using a microplate reader (Molecular Devices, USA). In this example, the untreated group was used as the control group, and the group to which insulin-like growth factor was added (IGF) was used as the positive control group."}, "HaCaT cells [2]": {"tested_on": "HaCaT cells", "assay": "Proliferation of skin cells (SRB staining, survival rate)", "assay_type": "cell-based, human", "conditions": "50 μM or 100 μM peptide, 72 hours, serum-free DMEM, FIG. 1B", "description": "as §1, §2"}, "collagen type 1 (Col1a1)": {"tested_on": "collagen type 1 (Col1a1)", "assay": "Expression of extracellular matrix constituent factor in NIH3T3 cells (RT-PCR)", "assay_type": "cell-based, mouse", "conditions": "50 μM or 100 μM peptide, 24 hours, FIG. 2, FIG. 3A", "description": "(§3) In this example, the aim was to confirm the effect of the peptide according to an example on improving endogenous skin aging, including improvement of wrinkles and enhancement of elasticity, etc., by evaluating the expression levels of collagen type 1 (Col1a1), fibronectin, or elastin, which are known components of the dermis.\n(§4) Specifically, NIH3T3 cells were seeded in a 6-well plate at a density of 3×10^5 cells/well and cultured for 24 hours. The cells were then washed once with serum-free DMEM media, and the culture medium was replaced with serum-free DMEM media. Thereafter, 50 μM or 100 μM of the peptide consisting of the amino acid sequence of SEQ ID NO: 1 was dispensed into the medium, and cultured in a CO2 incubator at 37° C. for 24 hours. The culture was then washed twice with PBS, and RNA was isolated from the culture using easy blue (iNtRON, Korea). Using an RT kit (Enzynomics, Korea), 1 μg of the isolated RNA was reverse transcribed to synthesize the respective cDNA. Polymerase chain reaction (PCR) was then performed using the cDNAs and primers Col1a1, fibronectin, and elastin. Meanwhile, the untreated group was used as the control group, and the group to which TGF-β1 was added (TGF-β1) was used as the positive control group, the nucleotide sequences of the primers used in this example are shown in Table 2 below."}, "elastin": {"tested_on": "elastin", "assay": "Expression of extracellular matrix constituent factor in NIH3T3 cells (RT-PCR)", "assay_type": "cell-based, mouse", "conditions": "50 μM or 100 μM peptide, 24 hours, FIG. 2, FIG. 3C", "description": "as §3, §4"}, "fibronectin": {"tested_on": "fibronectin", "assay": "Expression of extracellular matrix constituent factor in NIH3T3 cells (RT-PCR)", "assay_type": "cell-based, mouse", "conditions": "50 μM or 100 μM peptide, 24 hours, FIG. 2, FIG. 3B", "description": "as §3, §4"}, "aquaporin-3 (AQP3)": {"tested_on": "aquaporin-3 (AQP3)", "assay": "Expression of skin barrier factor in HaCaT cells (RT-PCR)", "assay_type": "cell-based, human", "conditions": "50 μM or 100 μM peptide, 24 hours, FIG. 4, FIG. 5B", "description": "(§5) In this example, the aim was to confirm the effect of the peptides according to an example on skin barrier defense, by evaluating the expression levels of sirtuin-1 (SIRT-1) or aquaporin-3 (AQP3).\n(§6) Specifically, HaCaT cells were seeded in a 6-well plate at a density of 3×10^5 cells/well and cultured for 24 hours. The cells were then washed once with serum-free DMEM media, and the culture medium was replaced with serum-free DMEM media. Thereafter, 50 μM or 100 μM of the peptide consisting of the amino acid sequence of SEQ ID NO: 1 was dispensed into the medium, and cultured in a CO2 incubator at 37° C. for 24 hours. The culture was then washed twice with PBS, and RNA was isolated from the culture using easy blue (iNtRON, Korea). Using the RT kit (Enzynomics, Korea), 1 μg of the isolated RNA was reverse transcribed to synthesize the respective cDNA. Polymerase chain reaction was then performed using the cDNAs and primers sirtuin-1 and aquaporin-3. Meanwhile, the untreated group was used as the control group, and the group to which EGF was added (EGF) was used as the positive control group, the nucleotide sequences of the primers used in this example are shown in Table 3 below."}, "sirtuin-1 (SIRT-1)": {"tested_on": "sirtuin-1 (SIRT-1)", "assay": "Expression of skin barrier factor in HaCaT cells (RT-PCR)", "assay_type": "cell-based, human", "conditions": "50 μM or 100 μM peptide, 24 hours, FIG. 4, FIG. 5A", "description": "as §5, §6"}, "NIH3T3 cells [3]": {"tested_on": "NIH3T3 cells", "assay": "Survival rate of skin cells after apoptosis induced by ultraviolet irradiation (SRB)", "assay_type": "cell-based, mouse", "conditions": "6 J/cm^2 ultraviolet rays, 50 μM or 100 μM peptide, 72 hours, FIG. 6A", "description": "(§7) In this example, the aim was to confirm the effect of the peptide according to an example on the inhibition of apoptosis or cell recovery of skin cells induced by ultraviolet rays, by evaluating the change in survival rate of skin cells whose apoptosis was induced by ultraviolet irradiation.\n(§8) Specifically, NIH3T3 cells or HaCaT cells were seeded in a 96-well plate at a density of 1×10^4 cells/well and cultured for 24 hours. The cells were then washed once with serum-free DMEM media, the culture medium was replaced with serum-free DMEM media, and 50 μM or 100 μM of the peptide consisting of the amino acid sequence of SEQ ID NO: 1 was dispensed to the culture medium. The culture medium dispensed with the peptide was cultured in a CO2 incubator at 37° C. for 1 hour, transferred to an e-tube, mixed with 100 μl of PBS, and dispensed into a well plate. Afterwards, using a UV irradiator (VILBER LOURMAT, France), 6 J/cm^2 ultraviolet rays were irradiated to NIH3T3 cells, and 15 m J/cm^2 ultraviolet rays were irradiated to HaCaT cells. The PBS in the well plate was then removed, 900 μL of the culture medium in which the peptides were dispensed was added, and the plate was cultured in a CO2 incubator at 37° C. for 72 hours. […] The dried culture was then dissolved in 20 mM Tris buffer solution and the absorbance at 560 nm was measured using a microplate reader (Molecular Devices, USA). […]"}, "HaCaT cells [4]": {"tested_on": "HaCaT cells", "assay": "Survival rate of skin cells after apoptosis induced by ultraviolet irradiation (SRB)", "assay_type": "cell-based, human", "conditions": "15 m J/cm^2 ultraviolet rays, 50 μM or 100 μM peptide, 72 hours, FIG. 6B", "description": "as §7, §8"}, "NIH3T3 cells [5]": {"tested_on": "NIH3T3 cells", "assay": "Level of reactive oxygen species in ultraviolet-irradiated skin cells (DCF-DA, flow cytometry)", "assay_type": "cell-based, mouse", "conditions": "6 J/cm2 ultraviolet rays, 50 μM or 100 μM peptide, 24 hours, FIG. 7A", "description": "(§9) In this example, the aim was to confirm the effect of the peptide according to an embodiment on the antioxidant effect of skin cells induced by ultraviolet rays, by evaluating the level of reactive oxygen species in skin cells increased by ultraviolet irradiation.\n(§10) Specifically, NIH3T3 cells or HaCaT cells were seeded in a 6-well plate at a density of 5×10^5 cells/well and cultured for 24 hours. The cells were then washed once with serum-free DMEM media, the culture medium was replaced with serum-free DMEM media, and 50 μM or 100 μM of the peptide consisting of the amino acid sequence of SEQ ID NO: 1 was dispensed to the culture medium. The culture medium dispensed with the peptide was cultured in a CO2 incubator at 37° C. for 1 hour, transferred to an e-tube, mixed with 100 μl of PBS, and dispensed into a well plate. Afterwards, using a UV irradiator (VILBER LOURMAT, France), 6 J/cm2 ultraviolet rays were irradiated to NIH3T3 cells, and 15 m J/cm2 ultraviolet rays were irradiated to HaCaT cells. The PBS in the well plate was then removed, 900 μL of the culture medium in which the peptides were dispensed was added, and the plate was cultured in a CO2 incubator at 37° C. for 24 hours. […] After washing the centrifuged cells with PBS, FL1 fluorescence values were measured through flow cytometry (FACS, BD, USA). […]"}, "HaCaT cells [6]": {"tested_on": "HaCaT cells", "assay": "Level of reactive oxygen species in ultraviolet-irradiated skin cells (DCF-DA, flow cytometry)", "assay_type": "cell-based, human", "conditions": "15 m J/cm2 ultraviolet rays, 50 μM or 100 μM peptide, 24 hours, FIG. 7B", "description": "as §9, §10"}}}
{"substance": "DGFND (Peptide 1) [SEQ ID NO: 1]", "values": [{"measurement": "proliferation of fibroblasts", "setting": "NIH3T3 cells [1]", "value": "promoted"}, {"measurement": "proliferation of keratinocytes", "setting": "HaCaT cells [2]", "value": "promoted"}, {"measurement": "expression of Col1a1", "setting": "collagen type 1 (Col1a1)", "value": "increased"}, {"measurement": "expression of elastin", "setting": "elastin", "value": "increased"}, {"measurement": "expression of fibronectin", "setting": "fibronectin", "value": "increased"}, {"measurement": "expression of AQP3", "setting": "aquaporin-3 (AQP3)", "value": "increased"}, {"measurement": "expression of SIRT-1", "setting": "sirtuin-1 (SIRT-1)", "value": "increased"}, {"measurement": "cell survival rate of fibroblasts reduced by ultraviolet irradiation", "setting": "NIH3T3 cells [3]", "value": "restored"}, {"measurement": "cell survival rate of keratinocytes reduced by ultraviolet irradiation", "setting": "HaCaT cells [4]", "value": "restored"}, {"measurement": "level of reactive oxygen species in fibroblasts increased by ultraviolet irradiation", "setting": "NIH3T3 cells [5]", "value": "reduced"}, {"measurement": "level of reactive oxygen species in keratinocytes increased by ultraviolet irradiation", "setting": "HaCaT cells [6]", "value": "reduced"}]}
